No end group written: not given here.
Columns and labels:
CD4+ T cells = test: NK cytotoxicity 51Cr-release assay, treated CD4+ T cells as targets of activated autologous purified NK cells; format: cell-based, human
Method: NK lines were generated from PBMC, and then purified using the StemSep cell separation system and the NK cell enrichment antibody cocktail (StemCell technologies). NK purified cells were cultured in MyeloCult H5100 medium (StemCell technologies) supplemented with 100 units rhlL-2 (Boheringer). The purity of these preparations was evaluated by flow cytometry after staining with anti-CD3 (BD), anti-CD56 (BD), anti-NKp44, and anti-NKp46 mAbs.
The cytololytic activity was assayed in 4-h ^51Cr-release assay as previously described. Briefly, the target cells were labeled for 2-h at 37° C. with 100 μCi per 10^6 cells Na^51Cr (Amersham), and washed twice with culture medium. The target cells were then distributed in round-bottomed 96-well microtiter plates (4×10^3 cells per well), and the effector cells were added at several E/T ratio. The plates were incubated 4-h at 37° C. The supernatant were then collected and ^51Cr-release was measured in a gamma counted. In experiments in which Abs were included, these were added to final concentration of 20 μg/ml. The relative specific ^51Cr-release was calculated as previously described. Values for spontaneous ^51Cr-release, which are deducted in the calculation, were between 10 and 20% of the total incorporated radioactivity. The results are presented after subtraction of the nonspecific lysis obtained with control targets. […]

[1] = test system: NKp44L expression on purified CD4+ T cells; format: cell-based, human; conditions: preliminary experiment with the 6-mers peptide
NKp44L = molecular target: T1, NKp44L (Homo sapiens, UniProt Q8IZD2); test: Staining of U2 cells with #7.1 mAb, flow cytometry, and competition with NCR-Ig fusion proteins; format: binding; conditions: HIV-1-infected U2 cells previously stained with fusion protein (FIG. 8C)
T1 construct: endogenous in cells; host or cells: U2 cells, uninfected or chronically infected with HIV-1 Sf2
T1 sequence (Q8IZD2 1-1168 isoform Q8IZD2-8 K496E/T516A): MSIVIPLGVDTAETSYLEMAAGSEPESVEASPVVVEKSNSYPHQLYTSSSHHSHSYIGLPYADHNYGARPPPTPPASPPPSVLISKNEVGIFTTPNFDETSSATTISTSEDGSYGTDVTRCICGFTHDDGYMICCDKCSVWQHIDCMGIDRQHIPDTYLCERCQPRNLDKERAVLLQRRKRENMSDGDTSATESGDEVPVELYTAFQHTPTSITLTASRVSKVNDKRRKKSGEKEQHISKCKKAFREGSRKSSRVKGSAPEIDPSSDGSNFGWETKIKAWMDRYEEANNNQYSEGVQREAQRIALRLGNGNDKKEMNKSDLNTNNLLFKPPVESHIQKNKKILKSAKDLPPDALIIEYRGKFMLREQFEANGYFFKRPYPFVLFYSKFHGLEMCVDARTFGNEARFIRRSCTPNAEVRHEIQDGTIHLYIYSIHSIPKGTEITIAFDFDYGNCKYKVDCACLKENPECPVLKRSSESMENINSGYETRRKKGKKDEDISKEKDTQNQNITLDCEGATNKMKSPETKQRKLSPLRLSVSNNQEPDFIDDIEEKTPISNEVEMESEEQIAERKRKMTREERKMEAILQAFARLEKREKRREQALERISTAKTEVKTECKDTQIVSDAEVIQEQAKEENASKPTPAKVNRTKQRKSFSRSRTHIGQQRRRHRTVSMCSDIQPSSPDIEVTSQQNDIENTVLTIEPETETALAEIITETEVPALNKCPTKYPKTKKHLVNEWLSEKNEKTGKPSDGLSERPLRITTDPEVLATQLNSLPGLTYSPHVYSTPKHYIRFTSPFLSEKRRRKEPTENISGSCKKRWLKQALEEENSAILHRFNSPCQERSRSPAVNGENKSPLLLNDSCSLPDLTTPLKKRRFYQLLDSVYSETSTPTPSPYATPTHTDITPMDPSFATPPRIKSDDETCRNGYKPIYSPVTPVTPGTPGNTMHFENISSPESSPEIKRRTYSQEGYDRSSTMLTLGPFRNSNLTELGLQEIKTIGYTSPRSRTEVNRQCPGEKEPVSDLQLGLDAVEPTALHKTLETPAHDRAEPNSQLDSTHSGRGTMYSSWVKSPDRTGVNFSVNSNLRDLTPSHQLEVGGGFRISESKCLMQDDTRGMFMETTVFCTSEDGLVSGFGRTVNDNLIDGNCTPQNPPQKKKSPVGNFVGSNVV
Method: 8B) Cell surface expression of NKp44L detected with #7.1 mAb. Uninfected (UI) and HIV-1-infected (Sf2) U2 cells were incubated with 1 μg/ml of #7.1 mAb (black line) or with the IgM isotype control (dotted line) and analyzed by flow cytometry.
8C) #7.1 mAb inhibits NKp44-Ig binding. HIV-1-infected U2 cells that had previously been stained with either […] of NKp44-Ig fusion protein (lower panel; black line) or control NKp46-Ig fusion protein (upper panel; black line) were incubated with #7.1 mAb (gray line) or IgM isotype control (dotted line) for 1!h at 4° C. and washed twice in 1% PBS-BSA. The cells were then analyzed by flow cytometry. Percentage of cells expressing NKp44L, after NCR-Ig incubation, is noted.
Anti-NKp44 (44/8; IgG1) and anti-NKp44L mAb (#7.1; IgM) were obtained from 5-weekold BalB/c mice immunized with the ClonaCell-HY hybridoma cloning kit, according to the manufacturer's instructions (StemCell Technologies Inc.). The anti-mouse-peroxidase hybridoma screening reagent (Roche) and ELISA were used to select antibodies. Anti-NKp44 (44/8) mAb was prepared by immunizing the mice with NKp44-Ig protein, after specific deletion of the IgG1 human Fc fragment. […] All hybridomas were analyzed with 51Cr cytotoxic assays with untreated or acid-treated 721.221 cells as targets, and the specificity of the anti-NKp44 hybridoma was analyzed by ELISA with different fusion proteins. […]

SWSNKS [NH2-SWSNKS-COOH, SWSNKS]
NK cytotoxic activity (CD4+ T cells; preliminary experiment with the 6-mers peptide): any increased
cell surface expression of NKp44L [1]: any increased

PWASNASWSNKSLDDIW [gp41-C146]
NK cytotoxic activity (CD4+ T cells; single peptides of pool C 5 μg/ml, two days, E/T ratio 40/1 (FIG. 4A)): strongly increased

B1: NKp44-Ig fusion protein: NKp44-Ig NCR-Ig fusion protein (protein)
chain: QSKAQVLQSVAGQTLTVRCQYPPTGSLYEKKGWCKEASALVCIRLVTSSKPRTMAWTSRFTIWDDPDAGFFTVTMTDLREEDSGHYWCRIYRPSDNSVSKSVRFYLVVSPASASTQTPWTPRDLVSSQTQTQSCVPPTAGARQAPESPSTIPVPSQPQNSTLRPGPAAPIA
modifications: left off: a dimerising Fc or GST
effect of NCR-Ig fusion protein on #7.1 mAb staining (NKp44L): Inhibition

Reference: patent US20170128564A1, “P[…] FROM gp41, A VACCINE COMPOSITION COMPRISING SAID POLYPEPTIDE, AND USES FOR TREATING AN INFECTION BY AN HIV VIRUS IN AN INDIVIDUAL” (INSTITUT NATIONAL DE LA SANTE ET DE LA RECHERCHE MEDICALE …, priority 2003, published 2017)
